The values that follow come from patent US12544375B2, “Small molecule therapeutic for parkinson's disease paired with a biomarker of therapeutic activity” (The Board of Trustees of the Leland Stanford Junior …, priority 2019, dated 2026).

The test system of the assay is LRRK2^G2019S, PINK1 null and SNCA^A53T flies. The assay can be described thus: Dopaminergic neuron number in fly PD models (anti-TH). In kind it is in vivo. The conditions noted are these: 2.5 μM in food, all three PD models. As for the experimental part: FIG. 4A-FIG. 4I. Miro1 Reducer Rescues PD-Relevant Phenotypes in Flies. For all panels, when Miro1 Reducer was not added, the same volume of the solvent, DMSO, was supplied in fly food. Drug administration (2.5 μM) was started from day 2. (FIG. 4A-FIG. 4C) Survival curves of LRRK2^G2019S (FIG. 4A), PINK1^B9 (imprecise excision, null) and PINK1^RV (the precise excision control for PINK1^B9) (FIG. 4B), and SNCA^A53T flies (FIG. 4C). n=58-150. (FIG. 4D) Dopaminergic (DA) neurons in the PPM1/2 clusters of 22-day old flies were immunostained with anti-TH. (FIG. 4D-FIG. 4F) Quantification of the DA neuron number in the PPL1 or PPM1/2 cluster (total number divided by 2 for each brain). (FIG. 4D) LRRK2^G2019S. n=6-8 brains. (FIG. 4E) PINK1^B9 (“−”) and PINK1^RV (“+”). n=9-16. (FIG. 4F) SNCA^A53T. n=9-11. […]
Immunocytochemistry and Confocal Microscopy. PI (P4170, Sigma) at 2.5 μg/ml or 4′, 6-Diamidino-2-phenylindole (Dapi-D9542, Sigma) at 0.5 μg/ml was applied in culture media at room temperature in the dark for 10 min, MitoSox (M36008, Invitrogen) at 2 μM was applied in culture media at 37° C. for 10 min, or TMRM (T668, Molecular Probes) at 25 nM was applied in culture media at 37° C. for 30 min, and cells were washed with HBSS and imaged immediately in a 35-mm petridish containing the Hibernate E low-fluorescence medium with a 63×/N.A.0.9 water-immersion objective. […]

Take `O=C(Nc1ccc(Nc2cc(-n3ccnc3)ncn2)cc1)Nc1cccc(F)c1` [Miro1 Reducer]: the “age-dependent dopaminergic neuronal loss” value is listed as “significantly rescued”.
